According to patent US8323680B1, “Nutritional composition” (Nestec S.A., priority 1999, dated 2012):

Experiments:
[1] = tested on: male Rj:NMRI mice; test: ELEVATED PLUS MAZE TEST, number of entries in the closed arms; type: in vivo; conditions: for Number of Entries in the Closed Arms, average entries: diets for 42 days, agent intraperitoneally 60 minutes before test
Description: In order to show the biological activity of the composition of the present invention on animal's behaviour the effect of dietary poly-unsaturated fatty acids with and without a CB-1 receptor antagonist on anxiolytic-like responses in mice were tested. To this end, the ELEVATED PLUS MAZE TEST was applied (adapted after Handley and Mithani (Naunyn. Schmied. Arch. Pharmacol. 327: 1-5, 1984).
For the experiments male Rj:NMRI mice, obtained from Elevage Janvier, Le Genest-Saint-Isle France and weighing 10-11 g at delivery and 33-51 grams on day 42 were used. The mice were housed 10 per cage in wire cages with bedding and normal light cycle. They received ad libitum quantities of bottled distilled water and purified powdered diets (7.5 g/mouse) in ceramic cups (10/group) for 42 days. The Food was maintained at −80° C. in daily aliquots under nitrogen, thawed each afternoon before administration to mice. Uneaten food was discarded daily.
The principle of the test resides in that anxiolytic agents increase the number of entries into the open and often the closed arms of the […], mice should want to move and explore the spaces of the open and closed arms rather than staying still in the middle).
Mice were given the following agents intraperitoneally 60 minutes before the Plus Maze test:
All diets contained 90% fat-free AIN93G rodent diet in powder form (Lot 9350-5, Dyets, Inc., Bethlehem, Pa.), 0.4% milk fat, 1.2% palm olein, 1.9% Trisun sunflower oil, 1.5% soybean oil and 2.1-5.1% medium chain triacylglycerol oil. Parts of the medium chain triacylglycerol oil were replaced with 1.1% algal oil (providing 0.5 dietary wt.-% arachidonic acid) in diet D, 1.9% fish oil (providing 0.5 dietary wt.-% docosahexaenoic acid) in diet E, and with 1.1% algal oil and 1.9% fish oil in diets F and G. Dietary groups are summarized in the table below:
The body weight, weight gain and the food intake of the mice was monitored throughout the experiment. […]

[2] = tested on: mice; conditions: oral, anandamide 300 mgkg body weight−1, 2-arachidonoyl glycerol 400 mgkg body weight−1; cited from earlier work
[3] = Effects of oral administration of cannabimimetic lipids on ambulation, rearing, immobility, analgesia, body temperature and fecal output (FIG. 3-5); type: in vivo; conditions: for immobility, difference from control group / rearing, difference from control group / body temperature, difference from control group: p<0.01-0.05, ANOVA, Newman-Keuls
[4] = tested on: animals; conditions: injected into animals; cited from earlier work

Row | Compound | Number of Entries in the Closed Arms, average entries [1] | Number of Entries in the Closed Arms, difference vs. group A ([1]; p-value = 0.19) | bioactivity when taken orally [2] | immobility, difference from control group ([3]; oral administration) | rearing, difference from control group ([3]; oral administration) | body temperature, difference from control group [3] | effects of pure doses when injected [4] | analgesia ([3]; oral administration)
1 | Cc1c(C(=O)NN2CCCCC2)nn(-c2ccc(Cl)cc2Cl)c1-c1ccc(I)cc1 [C] | 2.3 | There was no significant difference (p-value = 0.19). | – | – | – | – | – | –
2 | 2 arachidonylglycerol [Diet 2-AG] | – | – | have bioactivity | significantly different | significantly different | significantly different | calming effects and effects on the immune system | –
3 | N-arachidonylethanolamine [anandamide] | – | – | have bioactivity | significantly different | significantly different | significantly different | calming effects and effects on the immune system | –
4 | CCCCCCCC/C=C\CCCCCCCC(N)=O [oleamide] | – | – | – | significantly different | significantly different | significantly different | calming effects and effects on the immune system | –
5 | CN1C(=O)CC(=O)N(c2ccccc2)c2cc(Cl)ccc21 [Clobazam] | 6.3 | – | – | – | – | – | – | –
6 | CCCCCc1cc(O)c2c(c1)OC(C)(C)[C@@H]1CCC(C)=C[C@@H]21 [THC, 9-tetrahydrocannabinol] | – | – | – | significantly different | significantly different | significantly different | – | significantly increased analgesia
